In ChEMBL document CHEMBL3792317, “Novel tetrazoloquinoline-rhodanine conjugates: Highly efficient synthesis and biological evaluation” (Bioorg Med Chem Lett, 2016):
≈ marks a conversion by molar mass, not a printed value.

Legend:
[1] = test system: Mycobacterium tuberculosis; assay: Antitubercular activity against Mycobacterium tuberculosis H37Ra ATCC 25177 incubated for 40 mins by XTT Reduction Menadione Assay; assay type: functional; conditions: H37Ra ATCC 25177, 40 min
[2] = Antitubercular activity against Mycobacterium bovis BCG ATCC 35743 incubated for 40 mins by XTT Reduction Menadione Assay; assay type: functional, Mycobacterium bovis BCG str. ATCC 35743; conditions: Mycobacterium tuberculosis variant bovis BCG, ATCC 35743, 40 min
[3] = test system: Candida albicans; assay: Antifungal activity against Candida albicans NCIM 3471 after 48 hrs by agar cup plate method; assay type: functional; conditions: NCIM 3471, 48 h
[4] = test system: Fusarium oxysporum; assay: Antifungal activity against Fusarium oxysporum NCIM 1332 after 48 hrs by agar cup plate method; assay type: functional; conditions: NCIM 1332, 48 h
[5] = test system: Aspergillus flavus; assay: Antifungal activity against Aspergillus flavus NCIM 539 after 48 hrs by agar cup plate method; assay type: functional; conditions: NCIM 539, 48 h
[6] = test system: Aspergillus niger; assay: Antifungal activity against Aspergillus niger NCIM 1196 after 48 hrs by agar cup plate method; assay type: functional; conditions: NCIM 1196, 48 h
[7] = test system: Cryptococcus neoformans; assay: Antifungal activity against Cryptococcus neoformans NCIM 576 after 48 hrs by agar cup plate method; assay type: functional; conditions: NCIM 576, 48 h
[8] = test system: Mycobacterium tuberculosis; assay: Antitubercular activity against Mycobacterium tuberculosis H37Ra ATCC 25177 at 30 ug/ml incubated for 40 mins by XTT Reduction Menadione Assay; assay type: functional; conditions: H37Ra ATCC 25177, 40 min, read-out: GI
[9] = test system: Mycobacterium tuberculosis; assay: Antitubercular activity against Mycobacterium tuberculosis H37Ra ATCC 25177 at 10 ug/ml incubated for 40 mins by XTT Reduction Menadione Assay; assay type: functional; conditions: H37Ra ATCC 25177, 40 min, read-out: GI
[10] = test system: Mycobacterium tuberculosis; assay: Antitubercular activity against Mycobacterium tuberculosis H37Ra ATCC 25177 at 3 ug/ml incubated for 40 mins by XTT Reduction Menadione Assay; assay type: functional; conditions: H37Ra ATCC 25177, 40 min, read-out: GI
[11] = test system: Mycobacterium bovis BCG str. ATCC 35743; assay: Antitubercular activity against dormant Mycobacterium bovis BCG ATCC 35743 at 30 ug/ml incubated for 40 mins by XTT Reduction Menadione Assay; assay type: functional
[12] = test system: Mycobacterium bovis BCG str. ATCC 35743; assay: Antitubercular activity against dormant Mycobacterium bovis BCG ATCC 35743 at 10 ug/ml incubated for 40 mins by XTT Reduction Menadione Assay; assay type: functional
[13] = test system: Mycobacterium bovis BCG str. ATCC 35743; assay: Antitubercular activity against dormant Mycobacterium bovis BCG ATCC 35743 at 3 ug/ml incubated for 40 mins by XTT Reduction Menadione Assay; assay type: functional
[14] = test system: Escherichia coli; assay: Antibacterial activity against Escherichia coli after 18 hrs by broth dilution method; assay type: functional
[15] = test system: Pseudomonas fluorescens; assay: Antibacterial activity against Pseudomonas fluorescens after 18 hrs by broth dilution method; assay type: functional
[16] = test system: Staphylococcus aureus; assay: Antibacterial activity against Staphylococcus aureus after 18 hrs by broth dilution method; assay type: functional
[17] = test system: Bacillus subtilis; assay: Antibacterial activity against Bacillus subtilis after 18 hrs by broth dilution method; assay type: functional
[18] = test system: Mycobacterium tuberculosis; assay: Antitubercular activity against dormant Mycobacterium tuberculosis H37Ra ATCC 25177 incubated for 40 mins by XTT Reduction Menadione Assay; assay type: functional; conditions: H37Ra ATCC 25177, 40 min
[19] = test system: Mycobacterium tuberculosis; assay: Antitubercular activity against active Mycobacterium tuberculosis H37Ra ATCC 25177 incubated for 40 mins by XTT Reduction Menadione Assay; assay type: functional; conditions: H37Ra ATCC 25177, 40 min
[20] = (§1) Cytotoxicity against human HeLa cells after 48 hrs by MTT assay; assay type: cell-based; conditions: HeLa cells
[21] = test system: HeLa; assay: as §1; assay type: cell-based; conditions: hela, 48 h
[22] = Cytotoxicity against human PANC1 cells after 48 hrs by MTT assay; assay type: cell-based, PANC-1; conditions: for GI50 at 48 h: PANC1 cells; for GI90: panc-1, 48 h
[23] = (§2) Cytotoxicity against human A549 cells after 48 hrs by MTT assay; assay type: cell-based; conditions: A549 cells
[24] = test system: A549; assay: as §2; assay type: cell-based; conditions: a549, 48 h
[25] = Cytotoxicity against human THP1 cells after 48 hrs by MTT assay; assay type: cell-based, THP-1; conditions: for GI50 at 48 h: THP1 cells; for GI90: thp-1, 48 h

SMILES | MIC [1] [µg/mL] | MIC [2] [µg/mL] | MIC [3] [µg/mL] | MIC [4] [µg/mL] | MIC [5] [µg/mL] | MIC [6] [µg/mL] | MIC [7] [µg/mL] | inhibition of growth at 30 µg/mL [8] [%] | inhibition of growth at 10 µg/mL [9] [%] | inhibition of growth at 3 µg/mL [10] [%] | growth inhibition (GI) [11] [%] | growth inhibition (GI) [12] [%] | growth inhibition (GI) [13] [%] | MIC [14] [µg/mL] | MIC [15] [µg/mL] | MIC [16] [µg/mL] | MIC [17] [µg/mL] | other results
Cc1ccc2c(c1)cc(/C=C1\SC(=S)N(CCC(=O)O)C1=O)c1nnnn12 | 50.5 (≈ 126 µM) | 51.3 (≈ 128 µM) | 100 (≈ 250 µM) | 75 (≈ 188 µM) | 75 (≈ 188 µM) | 25 (≈ 62.6 µM) | 50 (≈ 125 µM) | 44.7 | 31.6 | 1.75 | 46.4 | 13.7 | 16.2 |  |  |  |  | 
Cc1cccc2cc(/C=C3\SC(=S)N(CCC(=O)O)C3=O)c3nnnn3c12 | 192 (≈ 481 µM) | 198 (≈ 495 µM) | 100 (≈ 250 µM) | 100 (≈ 250 µM) | 50 (≈ 125 µM) | 75 (≈ 188 µM) | 50 (≈ 125 µM) | 36.9 | 15.5 | -0.39 | -8.69 | -11.4 | -8.42 |  |  |  |  | 
O=C(O)CN1C(=O)/C(=C/c2cc3ccccc3n3nnnc23)SC1=S | > 250 | > 250 | 50 (≈ 135 µM) | 50 (≈ 135 µM) | 125 (≈ 337 µM) | 125 (≈ 337 µM) | 150 (≈ 404 µM) | 1.49 | -2.04 | 12.2 | -12.2 | -28.9 | -52.6 | 178 (≈ 480 µM) | 182 (≈ 489 µM) | 151 (≈ 408 µM) | 124 (≈ 333 µM) | 
Cc1ccc2c(c1)cc(/C=C1\SC(=S)N(CC(=O)O)C1=O)c1nnnn12 | 88.1 (≈ 229 µM) | 84.4 (≈ 219 µM) | 25 (≈ 64.9 µM) | 100 (≈ 259 µM) | 50 (≈ 130 µM) | 150 (≈ 389 µM) | 100 (≈ 259 µM) | 36.7 | 16.3 | 17.5 | -14.8 | 35.3 | 20.2 |  |  |  |  | IC90 [18]: 88.1 µg/mL (≈ 229 µM); IC90 [19]: 49.2 µg/mL (≈ 128 µM); GI50 at 48 h [20]: > 100 µg/mL; GI90 [21]: > 100 µg/mL; GI50 at 48 h [22]: > 100 µg/mL; GI90 [22]: > 100 µg/mL; GI50 at 48 h [23]: > 100 µg/mL; GI90 [24]: > 100 µg/mL; GI50 at 48 h [25]: > 100 µg/mL; GI90 [25]: > 100 µg/mL
O=C1NC(=S)S/C1=C\c1cc2ccccc2n2nnnc12 | 162 (≈ 515 µM) | 168 (≈ 536 µM) | 150 (≈ 479 µM) | 150 (≈ 479 µM) | 125 (≈ 399 µM) | 100 (≈ 319 µM) | 75 (≈ 239 µM) | 51.8 | 71 | 34 | -15.7 | -5.07 | -8.27 | 212 (≈ 677 µM) | 186 (≈ 593 µM) | 153 (≈ 487 µM) | 204 (≈ 652 µM) | IC90 [18]: 162 µg/mL (≈ 515 µM); IC90 [19]: > 250 µg/mL; GI50 at 48 h [20]: > 100 µg/mL; GI90 [21]: > 100 µg/mL; GI50 at 48 h [22]: > 100 µg/mL; GI90 [22]: > 100 µg/mL; GI50 at 48 h [23]: 79.2 µg/mL (≈ 253 µM); GI90 [24]: > 100 µg/mL; GI50 at 48 h [25]: > 100 µg/mL; GI90 [25]: > 100 µg/mL
Clc1ccc(COC(Cn2ccnc2)c2ccc(Cl)cc2Cl)c(Cl)c1 (stereo not given) [MICONAZOLE] |  |  | 25 (≈ 60.1 µM) | 25 (≈ 60.1 µM) | 12.5 (≈ 30 µM) | 25 (≈ 60.1 µM) | 25 (≈ 60.1 µM) |  |  |  |  |  |  |  |  |  |  | 
O=C(O)CCN1C(=O)/C(=C/c2cc3ccccc3n3nnnc23)SC1=S | 174 (≈ 451 µM) | 182 (≈ 473 µM) | 100 (≈ 259 µM) | 125 (≈ 324 µM) | 150 (≈ 389 µM) | 150 (≈ 389 µM) | 175 (≈ 454 µM) | 48.9 | 17.7 | -1.77 | 47.9 | 21.6 | 18.8 |  |  |  |  | 
NC[C@H]1O[C@H](O[C@H]2[C@H](O)[C@@H](O[C@H]3O[C@H](CO)[C@@H](O)[C@H](N)[C@H]3O)[C@H](N)C[C@@H]2N)[C@H](O)[C@@H](O)[C@@H]1O [KANAMYCIN] |  |  |  |  |  |  |  |  |  |  |  |  |  | 1.62 (≈ 3.34 µM) | 0.49 (≈ 1.01 µM) | > 30 | 1.35 (≈ 2.79 µM) | 
